Laboratory results taken from PubChem BioAssay AID2060507 (Molecular Pharmacology Branch, DTP, NCI, 2025).
One block for each compound: values may come before it.

Test system: 519858-162-T-J1-PDC complex spheroid viability
Test: Anticancer human tumor 519858-162-T-J1-PDC patient-derived colon adenocarcinoma cell line growth inhibition [GQUAD]
Details: for IC50: curve of first compound; for viability, T/C: stronger effect = lower value
Outline: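 Tumor cells were grown as complex spheroids with HUVEC endothelial cells and mesenchymal stem cells as stroma. G-quadruplex stabilizers were combined with targeted agents over half-log dilutions from near the clinical Cmax, or from 10 microM.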

[1] = second compound 0.0316 µM, first compound 0.0316 µM
[2] = second compound 0.0316 µM, first compound 0.1 µM
[3] = second compound 0.0316 µM, first compound 0.316 µM
[4] = second compound 0.0316 µM, first compound 1 µM
[5] = second compound 0.0316 µM, first compound 3.16 µM
[6] = second compound 0.0316 µM, first compound 10 µM
[7] = second compound 0.1 µM, first compound 0.0316 µM
[8] = second compound 0.1 µM, first compound 0.1 µM
[9] = second compound 0.1 µM, first compound 0.316 µM
[10] = second compound 0.1 µM, first compound 1 µM
[11] = second compound 0.1 µM, first compound 3.16 µM
[12] = second compound 0.1 µM, first compound 10 µM
[13] = second compound 0.316 µM, first compound 0.0316 µM
[14] = second compound 0.316 µM, first compound 0.1 µM
[15] = second compound 0.316 µM, first compound 0.316 µM
[16] = second compound 0.316 µM, first compound 1 µM
[17] = second compound 0.316 µM, first compound 3.16 µM
[18] = second compound 0.316 µM, first compound 10 µM
[19] = second compound 1 µM, first compound 0.0316 µM
[20] = second compound 1 µM, first compound 0.1 µM
[21] = second compound 1 µM, first compound 0.316 µM
[22] = second compound 1 µM, first compound 1 µM
[23] = second compound 1 µM, first compound 3.16 µM
[24] = second compound 1 µM, first compound 10 µM
[25] = second compound 3.16 µM, first compound 0.0316 µM
[26] = second compound 3.16 µM, first compound 0.1 µM
[27] = second compound 3.16 µM, first compound 0.316 µM
[28] = second compound 3.16 µM, first compound 1 µM
[29] = second compound 3.16 µM, first compound 3.16 µM
[30] = second compound 3.16 µM, first compound 10 µM
[31] = second compound 10 µM, first compound 0.0316 µM
[32] = second compound 10 µM, first compound 0.1 µM
[33] = second compound 10 µM, first compound 0.316 µM
[34] = second compound 10 µM, first compound 1 µM
[35] = second compound 10 µM, first compound 3.16 µM
[36] = second compound 10 µM, first compound 10 µM
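Also: spheroids exposed to compounds for 7 days.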
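For viability, T/C in this document: 100% = DMSO vehicle control viability.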

Structure (SMILES): Nc1ccn(C2OC(CO)C(O)C2(F)F)c(=O)n1 (centres undefined) + Cc1[nH]c2ccc(F)cc2c1-c1nc2c3cccnc3c3ncccc3c2[nH]1
- IC50 (second compound 0.0316 µM): > 10 µM
- IC50 (second compound 0.1 µM): > 10 µM
- IC50 (second compound 0.316 µM): > 10 µM
- IC50 (second compound 1 µM): > 10 µM
- IC50 (second compound 3.16 µM): > 10 µM
- IC50 (second compound 10 µM): > 10 µM
- viability, T/C [1]: 131%
- viability, T/C [2]: 69.3%
- viability, T/C [3]: 89.4%
- viability, T/C [4]: 80.1%
- viability, T/C [5]: 83%
- viability, T/C [6]: 72.3%
- viability, T/C [7]: 85.9%
- viability, T/C [8]: 143%
- viability, T/C [9]: 70.5%
- viability, T/C [10]: 71%
- viability, T/C [11]: 82.9%
- viability, T/C [12]: 102%
- viability, T/C [13]: 93.3%
- viability, T/C [14]: 116%
- viability, T/C [15]: 78.5%
- viability, T/C [16]: 57.9%
- viability, T/C [17]: 70%
- viability, T/C [18]: 69.8%
- viability, T/C [19]: 90.7%
- viability, T/C [20]: 81.9%
- viability, T/C [21]: 89.5%
- viability, T/C [22]: 76.9%
- viability, T/C [23]: 84.2%
- viability, T/C [24]: 73.7%
- viability, T/C [25]: 54.4%
- viability, T/C [26]: 76.8%
- viability, T/C [27]: 61.9%
- viability, T/C [28]: 47.2%
- viability, T/C [29]: 95.4%
- viability, T/C [30]: 60.5%
- viability, T/C [31]: 82.4%
- viability, T/C [32]: 73.5%
- viability, T/C [33]: 73%
- viability, T/C [34]: 68.9%
- viability, T/C [35]: 108%
- viability, T/C [36]: 54.2%

- IC50 (second compound 0.0316 µM): > 10 µM
- IC50 (second compound 0.1 µM): > 10 µM
- IC50 (second compound 0.316 µM): > 10 µM
- IC50 (second compound 1 µM): < 0.0316 µM
- IC50 (second compound 3.16 µM): < 0.0316 µM
- IC50 (second compound 10 µM): < 0.0316 µM
Structure (SMILES): C=CCn1c(=O)c2cnc(Nc3ccc(N4CCN(C)CC4)cc3)nc2n1-c1cccc(C(C)(C)O)n1 + Cc1cnc(CNC(=O)c2c(=O)c3ccc(N4CCCN(C)CC4)nc3n3c2sc2ccccc23)cn1
- viability, T/C [1]: 95.6%
- viability, T/C [2]: 82.6%
- viability, T/C [3]: 94.3%
- viability, T/C [4]: 66.1%
- viability, T/C [5]: 70.4%
- viability, T/C [6]: 76%
- viability, T/C [7]: 81.8%
- viability, T/C [8]: 96.9%
- viability, T/C [9]: 58.5%
- viability, T/C [10]: 92%
- viability, T/C [11]: 66.8%
- viability, T/C [12]: 69.7%
- viability, T/C [13]: 51.6%
- viability, T/C [14]: 73%
- viability, T/C [15]: 49.8%
- viability, T/C [16]: 64.2%
- viability, T/C [17]: 75.8%
- viability, T/C [18]: 64.3%
- viability, T/C [19]: 60%
- viability, T/C [20]: 48.2%
- viability, T/C [21]: 38.8%
- viability, T/C [22]: 42.4%
- viability, T/C [23]: 73.6%
- viability, T/C [24]: 68%
- viability, T/C [25]: 46.3%
- viability, T/C [26]: 51.4%
- viability, T/C [27]: 53.8%
- viability, T/C [28]: 45.5%
- viability, T/C [29]: 49.5%
- viability, T/C [30]: 53.4%
- viability, T/C [31]: 40%
- viability, T/C [32]: 55.3%
- viability, T/C [33]: 51.6%
- viability, T/C [34]: 40.1%
- viability, T/C [35]: 32.3%
- viability, T/C [36]: 39.4%
